Target: T1, Renin (Homo sapiens, UniProt P00797)
T1 construct: Das Blut wird von freiwilligen Probanden gewonnen; from tissue; host or cells: human blood plasma (EDTA) from volunteers
T1 sequence (P00797 67-406): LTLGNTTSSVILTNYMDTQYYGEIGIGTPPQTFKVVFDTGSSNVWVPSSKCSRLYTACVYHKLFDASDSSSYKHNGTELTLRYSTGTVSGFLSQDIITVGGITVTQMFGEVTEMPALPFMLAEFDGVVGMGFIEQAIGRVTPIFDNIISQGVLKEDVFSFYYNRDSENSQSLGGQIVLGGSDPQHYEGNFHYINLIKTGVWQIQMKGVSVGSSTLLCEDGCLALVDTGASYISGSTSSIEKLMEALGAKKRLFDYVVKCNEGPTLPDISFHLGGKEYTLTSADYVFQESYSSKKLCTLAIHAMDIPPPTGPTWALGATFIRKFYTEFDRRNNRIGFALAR
Assay: Renin inhibition in human plasma (angiotensin I release, radioimmunoassay)
Format: biochemical
Details: 37°C, 1 h incubation, phosphate buffer pH 7.4, max. 1 % DMSO, read from % residual plasma renin activity vs. concentration, read-out: IC₅₀
Method: Die Wirksamkeit von Renin-Hemmern kann durch in-vitro-Tests überprüft werden. Hierbei wird die Verminderung der Bildung von Angiotensin I in verschiedenen Systemen (Humanplasma, gereinigtes Humanrenin) gemessen.
Z.B. Humanplasma, welches sowohl Renin als auch Angiotensinogen enthält, wird bei 37°C mit der zu testenden Verbindung inkubiert. Dabei wird aus Angiotensinogen unter der Einwirkung von Renin Angiotensin I freigesetzt, das anschließend mit einem handelsüblichen Radioimmunoassay gemessen werden kann. Diese Angiotensin-Freisetzung wird durch Renin-Inhibitoren gehemmt.
Das Blut wird von freiwilligen Probanden gewonnen (ca. 0,5 l pro Person; Bluko-Entnahmegerät der Fa. ASID Bonz und Sohn, Unterschleißheim) und in teilweise evakuierten Flaschen unter Eiskühlung aufgefangen. Die Gerinnung wird durch Zugabe von EDTA (Endkonzentration 10 mM) verhindert. Nach dem Zentrifugieren (Rotor HS 4 (Sorvall), 3 500 Upm, 0-4°C, 15 min; wiederholen, falls erforderlich) wird das Plasma vorsichtig abpipettiert und in geeigneten Portionen bei -30°C eingefroren. Für den Test werden nur Plasmen mit ausreichend hoher Reninaktivität verwendet. Plasmen mit niedriger Reninaktivität werden durch eine Kältebehandlung (-4°C, 3 Tage) aktiviert (Prorenin → Renin).
Angiotensin I wird mit dem Renin-Maia®-Kit (Serono Diagnostics S.A., Coinsins, Schweiz) bestimmt. Die Inkubation des Plasmas wird nach der dort angegebenen Anleitung durchgeführt: Inkubationsansatz: 1000 µl Plasma (bei 0-4°C aufgetaut) 100 µl Phosphatpuffer (pH 7,4) Zusatz von 10⁻⁴ M Ramiprilat) 10 µl PMSF-Lösung 10 µl 0,1 % Genapol PFIC 12 µl DMSO bzw. Testpräparat
Die Testpräparate werden i.a. 10⁻² M in 100 % Dimethylsulfoxid (DMSO) gelöst und mit DMSO entsprechend verdünnt; der Inkubationsansatz enthält max. 1 % DMSO.
Die Ansätze werden in Eis gemischt und für 1 Stunde zur Inkubation in ein Wasserbad (37°C) gestellt. Aus einem zusätzlichen Ansatz ohne Inhibitor werden ohne weitere Inkubation insgesamt 6 Proben (jeweils 100 µl) zur Bestimmung des Ausgangs-Angiotensin I-Gehaltes des verwendeten Plasmas entnommen.
Die Konzentrationen der Testpräparate werden so gewählt, daß etwa der Bereich von 10-90 % Enzymhemmung abgedeckt ist (mindestens fünf Konzentrationen). Am Ende der Inkubationszeit werden aus jedem Ansatz drei 100 µl-Proben in vorgekühlten Eppendorf-Gefäßen auf Trockeneis eingefroren und bei ca. -25°C für die Angiotensin I-Bestimmung aufbewahrt (Mittelwert aus drei Einzelproben).
Es wird exakt der Gebrauchsanweisung des RIA-Kits (Renin-Maia®-Kit, Serono Diagnostics S.A., Coinsins, Schweiz) befolgt.
Die Eichkurve umfaßt den Bereich von 0,2 bis 25,0 ng Angiotensin I pro ml. Der Basis-Angiotensin I-Gehalt des Plasmas wird von allen Meßwerten abgezogen. Die Plasma-Renin-Aktivität (PRA) wird als ng Ang I/ml x Stunde angegeben. PRA-Werte in Gegenwart der Testsubstanzen werden auf einen Ansatz ohne Inhibitor (= 100 %) bezogen und als % Restaktivität angegeben. Aus der Auftragung von % Restaktivität gegen die Konzentration (M) des Testpräparates (logarithmische Skala) wird der IC₅₀-Wert abgelesen.

CCNC(=O)N[C@@H](Cc1ccccc1)C(=O)N[C@@H](Cc1c[nH]cn1)C(=O)N[C@@H](CC1CCCCC1)[C@@H](O)CCCc1ccccn1 [Beispiel 1, 1-Cyclohexyl-6-(2-pyridyl)-2S-(N-(ethylaminocarbonyl-Phe-His)-amino)-3S-hexanol]
IC50: 2 µM

CCC[C@H](NC(=O)[C@H](Cc1ccccc1)NC(=O)NC(C)C)C(=O)N[C@@H](CC1CCCCC1)[C@@H](O)CCCc1ccccn1 [Beispiel 2, 1-Cyclohexyl-6-(2-pyridyl)-2S-(N-(isopropylaminocarbonyl-Phe-Nva)-amino)-3S-hexanol]
IC50: 0.62 µM

CCC[C@H](NC(=O)[C@H](Cc1ccccc1)NC(=O)NCC(C)(C)C)C(=O)N[C@@H](CC1CCCCC1)[C@@H](O)CCCc1ccccn1 [Beispiel 3, 1-Cyclohexyl-6-(2-pyridyl)-2S-(N-(2,2-dimethylpropylaminocarbonyl-Phe-Nva)-amino)-3S-hexanol]
IC50: 0.9 µM

CCC[C@H](NC(=O)[C@H](Cc1ccccc1)NC(=O)NCC)C(=O)N[C@@H](CC1CCCCC1)[C@@H](O)CCCc1ccccn1 [Beispiel 4, 1-Cyclohexyl-6-(2-pyridyl)-2S-(N-(ethylaminocarbonyl-Phe-Nva)-amino)-3S-hexanol]
IC50: 0.38 µM

CC(C)(C)NC(=O)N[C@@H](Cc1ccccc1)C(=O)N[C@@H](Cc1c[nH]cn1)C(=O)N[C@@H](CC1CCCCC1)[C@@H](O)CCCc1ccccn1 [Beispiel 5]
IC50: 1 µM

CCC[C@H](NC(=O)[C@H](Cc1ccccc1)NC(=O)NC(C)(C)C)C(=O)N[C@@H](CC1CCCCC1)[C@@H](O)CCCc1ccccn1 [Beispiel 6, 1-Cyclohexyl-6-(2-pyridyl)-2S-(N-(tert.butylaminocarbonyl-Phe-Nva)-amino)-3S-hexanol]
IC50: 0.4 µM

CCC[C@H](NC(=O)[C@H](Cc1cccs1)NC(=O)NC(C)(C)C)C(=O)N[C@@H](CC1CCCCC1)[C@@H](O)CCCc1ccccn1 [Beispiel 7, 1-Cyclohexyl-6-(2-pyridyl)-2S-(N-(tert.butylaminocarbonyl-Thi-Nva)-amino)-3S-hexanol]
IC50: 0.26 µM

CCC[C@H](NC(=O)[C@H](Cc1ccc(OC)cc1)NC(=O)NC(C)(C)C)C(=O)N[C@@H](CC1CCCCC1)[C@@H](O)CCCc1ccccn1 [Beispiel 8]
IC50: > 10 µM

CCC[C@H](NC(=O)[C@H](Cc1ccccc1)NC(=O)NC(C)(C)C)C(=O)N[C@@H](CC1CCCCC1)[C@H](O)CCCc1ccccn1 [Beispiel 9, 1-Cyclohexyl-6-(2-pyridyl)-2S-(N-(tert.butylaminocarbonyl-Phe-Nva)-amino)-3R-hexanol]
IC50: 6.5 µM

CC(C)(C)NC(=O)N[C@@H](Cc1ccccc1)C(=O)N[C@@H](Cc1c[nH]cn1)C(=O)N[C@@H](CC1CCCCC1)[C@H](O)CCCc1ccccn1 [Beispiel 10, 1-Cyclohexyl-6-(2-pyridyl)-2S-(N-(tert.butylaminocarbonyl-Phe-His)-amino)-3R-hexanol]
IC50: > 1 µM

CCNC(=O)N[C@@H](Cc1ccccc1)C(=O)N[C@@H](Cc1c[nH]cn1)C(=O)N[C@@H](CC1CCCCC1)[C@H](O)CCCc1ccccn1 [Beispiel 11, 1-Cyclohexyl-6-(2-pyridyl)-2S-(N-(ethylaminocarbonyl-Phe-His)-amino)-3R-hexanol]
IC50: 0.9 µM

CCC[C@H](NC(=O)[C@H](Cc1ccccc1)NC(=O)NC(C)C)C(=O)N[C@@H](CC1CCCCC1)[C@H](O)CCCc1ccccn1 [Beispiel 12, 1-Cyclohexyl-6-(2-pyridyl)-2S-(N-(isopropylaminocarbonyl-Phe-Nva)-amino)-3R-hexanol]
IC50: 5.5 µM

CCC[C@H](NC(=O)[C@H](Cc1ccccc1)NC(=O)NCC(C)(C)N)C(=O)N[C@@H](CC1CCCCC1)[C@@H](O)CCCc1ccccn1 [Beispiel 13, 1-Cyclohexyl-6-(2-pyridyl)-2S-(N-(2-amino-2-methylpropylaminocarbonyl-Phe-Nva)-amino)-3S-hexanol]
IC50: 0.34 µM

CC(C)(C)NC(=O)N[C@@H](Cc1ccccc1)C(=O)N[C@@H](CC(N)=O)C(=O)N[C@@H](CC1CCCCC1)[C@@H](O)CCCc1ccccn1 [Beispiel 14]
IC50: 8 µM

CCC[C@H](NC(=O)[C@H](Cc1ccccc1)NC(=O)NC(C)(C)C(=O)O)C(=O)N[C@@H](CC1CCCCC1)[C@@H](O)CCCc1ccccn1 [Beispiel 29, 1-Cyclohexyl-6-(2-pyridyl)-2S-[N-[(1-carboxy-1-methylethylaminocarbonyl)-Phe-Nva]-amino]-3S-hexanol]
IC50: 0.65 µM
